One assay relates to nAChRs. The settings on record: unc-74 animals; reduction not greater than in unc-38 mutants. The procedure:
(§1) Electrophysiology was performed as previously described (Richmond and Jorgensen, 1999a).
(§2) To directly examine levamisole sensitive nAChR function, electrophysiological analysis was performed on wild type and unc-74 mutant animals (FIG. 2). Intact body wall muscles of dissected animals were voltage clamped and the amount of current elicited in response to levamisole was measured.

The test system of assay [1] is C. elegans. On the procedure:
(§3) Pharmacological resistance assays. Plates were equilibrated to room temperature, weighed, and equal volumes of different concentrations of levamisole or aldicarb were added to make plates containing specific concentrations of drug. Once plates dried, they were seeded with a drop of OP50 and incubated overnight at room temperature. A minimum of 15 young adult animals (levamisole) or L4 animals (aldicarb) were placed on drug plates and maintained for two (levamisole) or eight (aldicarb) hours. The percentage of animals on each plate that were paralyzed in response to mild stimulation was determined. Data presented represents the mean +/− SEM of n=number of plates.

Assay [2] concerns levamisole sensitive nAChR. On the procedure:
as §1, §2

Another assay deals with UNC-49/GABAA receptors. As to the kind of experiment: Electrophysiology: GABA-induced current in wild type and unc-74 animals. In kind it is cell-based, C. elegans. The settings on record: unc-74 mutant animals.
Assay [3] deals with C. elegans. As to the kind of experiment: Aldicarb resistance assay (paralysis on drug plates). It counts as in vivo. The settings on record: unc-74 animals (data not shown). On the procedure: as §3

For `CN1CCCC1c1cccnc1` (stereo not drawn) [nicotine], the “amplitude of nicotine current relative to wild type” value in the assay on nAChRs is “reduced”.
`c1ccc([C@H]2CN3CCSC3=N2)cc1` [levamisole]: the “resistance to levamisole (paralysis)” value in the assay on C. elegans [1] (unc-74 mutant animals, all concentrations tested, FIG. 1(B)) is “completely resistant”. Also, the response to levamisole entry with C. elegans [1] (unc-74 mutants, concentrations that completely paralyze wild type) is reported as “no response”. Besides, in the assay on C. elegans [1] (wild type animals, levamisole resistance curves, FIG. 1(B)), the “concentration of levamisole at which animals become paralyzed” value is on record as around 0.15 mM. The “time to hypercontraction and complete paralysis” value in the assay on C. elegans [1] (wild type animals, solid media, millimolar concentrations of levamisole (0.2 mM), FIG. 1(A)) was around 2 h. The “inward current elicited by focal pulses of levamisole” value in assay [2] was “around 200 pA”. The levamisole induced current entry in assay [2] (unc-74 mutants, voltage clamped muscle cells) is listed as “completely abolished”.
Regarding `NCCCC(=O)O` [GABA], the “GABA induced currents compared with wild type” value with UNC-49/GABAA receptors is “equivalent”.
Regarding `CNC(=O)O/N=C/C(C)(C)SC` [aldicarb], the resistance to aldicarb entry in the assay with C. elegans [3] is listed as “only partially resistant”.

The values are drawn from US20100160217A1 (priority 2005, published 2010).
